Test results as given in publication PMC9891171, “Inhibition studies with simple and complex (in)organic anions of the γ-carbonic anhydrase from Mammaliicoccus (Staphylococcus) sciuri, MscCAγ” (Journal of Enzyme Inhibition and Medicinal Chemistry, 2023).

What follows are molecules tested against T1, MscCAγ (Mammaliicoccus sciuri, UniProt A0AB37HNM1) (assay: stopped-flow CO2 hydration assay). Details: read-out: KI (mM)^a / McsCAγ.
T1 construct: gene OWO77_11715
T1 sequence (A0AB37HNM1 1-169): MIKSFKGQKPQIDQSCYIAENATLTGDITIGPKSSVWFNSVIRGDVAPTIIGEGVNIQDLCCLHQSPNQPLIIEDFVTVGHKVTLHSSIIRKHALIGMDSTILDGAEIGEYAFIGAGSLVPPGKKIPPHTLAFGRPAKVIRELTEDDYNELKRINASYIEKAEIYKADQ
Assay type: biochemical
With O=P(O)(O)OP(=O)(O)O [pyrophosphate] the Ki was 0.8 mM. Molecule O=S(=O)(O)NS(=O)(=O)O [iminodisulfonate] has a Ki of 13.7 mM. NS(=O)(=O)O [sulphamic acid] gave a Ki of 25.2 mM. NS(N)(=O)=O [sulfamide] showed a Ki of 49.2 mM. CCN(CC)C(=S)S [N,N-diethyldithiocarbamate] showed a Ki of 0.5 mM. In the case of [O]=[Re](=[O])(=[O])[OH] [perrhenate], the Ki is reported as 4.4 mM. With S=C(S)S [trithiocarbonate] the Ki was 0.07 mM. N#C[SeH] [selenocyanide] showed a Ki of 32.5 mM. Molecule OB(O)c1ccccc1 [phenylboronic acid] has a Ki of 0.9 mM.
